pIC50: −log10 of the molar value. Active and inactive are the calls of the source.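 The calls were made as follows: active = half-maximal concentration for changing protein binding to DNA, from the fitted dose curve, below 10 micromolar; inactive = the rest.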
What follows are compounds tested against Nuclear receptor subfamily 1 group D member 1 (Homo sapiens) (UniProt P20393) (assay: modulators of Rev-erb alpha DNA binding, dose response, biochemical, FITC-DNA, fluorescence polarization (AID 1259321)).
Chain of Nuclear receptor subfamily 1 group D member 1 (Homo sapiens) (P20393 whole entry, looked up): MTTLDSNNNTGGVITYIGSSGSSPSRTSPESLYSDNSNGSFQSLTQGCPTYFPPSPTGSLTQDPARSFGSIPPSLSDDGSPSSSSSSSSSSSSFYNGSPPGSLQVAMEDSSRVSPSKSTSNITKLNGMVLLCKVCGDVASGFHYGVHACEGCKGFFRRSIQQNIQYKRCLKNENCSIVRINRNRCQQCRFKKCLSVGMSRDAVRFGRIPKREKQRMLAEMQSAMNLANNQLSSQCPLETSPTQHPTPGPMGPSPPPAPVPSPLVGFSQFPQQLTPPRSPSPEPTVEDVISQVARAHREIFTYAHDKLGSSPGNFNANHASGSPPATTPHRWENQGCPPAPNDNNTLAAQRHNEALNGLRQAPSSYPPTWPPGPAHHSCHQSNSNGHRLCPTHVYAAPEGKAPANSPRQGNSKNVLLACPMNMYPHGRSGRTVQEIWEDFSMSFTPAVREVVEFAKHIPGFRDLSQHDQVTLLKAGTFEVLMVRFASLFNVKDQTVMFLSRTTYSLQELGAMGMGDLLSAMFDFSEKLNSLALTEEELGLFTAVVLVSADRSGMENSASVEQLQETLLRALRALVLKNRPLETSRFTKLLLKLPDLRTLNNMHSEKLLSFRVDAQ

Compound	pIC50	IC50
COc1ccc(-n2nc(C(=O)NCC(=O)Nc3ccccn3)c3ccccc3c2=O)cc1Cl	5.89	
CCN1C(=O)/C(=C\N2CCN(c3ccc(F)cc3)CC2)SC1=S		> 40 µM (inactive)
COc1ccc(Sc2nc3ccccc3n3c(C(F)(F)F)nnc23)cc1	5.52	
CCc1nc(SCC(=O)NCc2ccco2)c2c3c(sc2n1)CCCC3		inactive
O=c1c2ccccc2nc2sc3ccccc3n12		> 40 µM (inactive)
Cc1cccc2cc(C#N)c(SCC#N)nc12		> 40 µM (inactive)
O=C(COc1ccccc1)Nc1nc2cc3c(cc2s1)OCCO3	5.37	
Fc1c(F)c(C(F)(F)F)c(F)c(F)c1N1CCN(c2ccc3nnc(C(F)(F)F)n3n2)CC1	5.77	
CN1C(=O)c2cc(NS(=O)(=O)c3ccc(F)cc3)ccc2OC[C@H]2O[C@@H](CC(=O)NCC(F)(F)F)CC[C@@H]21	5.79	
CN1C(=O)c2ccc(C(=O)Nc3ccc(Br)cn3)cc2C1=O		> 40 µM (inactive)
CCCCCOc1ccc(NC(=O)CSc2cccc3cccnc23)cc1	6.17	
O=c1cc(-c2ccccc2Cl)oc2c(NS(=O)(=O)c3cccs3)ccc(O)c12		inactive
Cc1cccc2cc(C#N)c(SCC(=O)N3CC(=O)Nc4ccccc43)nc12		inactive
Cc1cc(C)cc(N2CC(O)=C(c3nc4ccccc4c(=O)[nH]3)C2=N)c1	5.52	
CCCN=C(C)c1c(-c2ccccc2)[nH]n(-c2nc3ccccc3s2)c1=O	6.04	
Cc1cc(C)c2c(N)c(C(=O)N/N=C/c3cccs3)sc2n1	5.27	
COc1ccc(C)cc1Nc1nc(-c2ccccc2O)nc2ccccc12	5.39	
CCc1ccc(NC(=O)CSc2nnc(-c3n[nH]c4ccccc34)n2-c2ccccc2)cc1	5.58	
O=C(Nc1nc2ccsc2c(=O)s1)c1ccc(Cl)cc1	5.11	
C=CCn1c(SCC(=O)Nc2cc(C)on2)nc2sc(C)c(C)c2c1=O	5.29	
O=C(CSc1nc2c(c(C(F)(F)F)n1)CCc1ccccc1-2)NCc1ccccc1	5.38	
CN(CC(=O)Nc1ccc(Cl)cc1)S(=O)(=O)c1ccc2c(c1)n(C)c(=O)c(=O)n2C	5.26	
CCN(CC)c1ccc(C=C2SC(=S)NC2=O)cc1	5.17	
COc1cc(C=Cc2nnc3c4ccccc4cnn23)cc(OC)c1OC		inactive

Compound	pIC50	IC50
COc1cc2c(cc1OC)CN(C(=O)CSc1nc(N)c(C#N)cc1C#N)CC2		inactive
CCOc1ccc2cc(C#N)c(SCC(=O)OC)nc2c1	5.43	
CNC(=O)COc1ccccc1C(=O)Nc1ccc2c(c1)oc1ccccc12		> 40 µM (inactive)
O=C(CCCOc1ccc(Cl)cc1Cl)NNC(=O)c1ccc(NC(=O)c2ccccc2)cc1	5.24	
CCN(CC)c1ccc2cc(C=O)c(=O)oc2c1		> 40 µM (inactive)
COc1ccc(C2C(C#N)=C(C)NC3=C2C(=O)c2ccccc23)cc1 (centres undefined)		inactive
COc1ccc2c(/C=C/c3cc[n+](C)cc3)c[nH]c2c1		inactive
COc1ccc(NC(=O)NNC(=O)COc2ccc3cc(Br)ccc3c2)c(OC)c1		> 40 µM (inactive)
O=C(CSc1nnc(-c2ccncc2)n1-c1ccc(Cl)cc1)c1ccc(Cl)c(Cl)c1	6.56	
O=C1c2cccc3c(O)ccc(c23)C(=O)N1Cc1ccco1		inactive
Cc1ccc2nc(SCC(=O)Nc3ccc4sc(C)nc4c3)c(C#N)cc2c1		> 40 µM (inactive)
CN(C)c1ccc(C=Cc2nccc3ccccc23)cc1		> 40 µM (inactive)
CC(C)Cc1nc2sc3c(SCC(N)=O)ncnc3c2c2c1CCC2	5.44	
O=C(COC(=O)c1cc(Br)ccc1O)Nc1cccnc1Cl	5.59	
CN(C)C=Nc1nc2c(Br)ccc(Br)c2cc1C(=O)NCC(C)(C)C		inactive
COc1ccc(-c2nn(C)c3sc(C(=O)NCc4ccco4)cc23)cc1OC		> 40 µM (inactive)
CN(CCC#N)c1ccc(/C=C(\C#N)c2ccccn2)cc1	5.25	
CN(C)c1ccc(/C=C/c2cc[n+](C)cc2)cc1	5.46	
CCN1/C(=C/c2ccc3cc(C)ccc3[n+]2CC)Sc2ccccc21		> 40 µM (inactive)
CCOC(=O)Cn1c(=NC(=O)c2cccs2)sc2cc(C(=O)OC)ccc21		inactive
COC(=O)c1ccc(C(=O)OC)c(NC(=O)N2c3ccccc3Sc3ccccc32)c1		> 40 µM (inactive)
Cc1cccc2cc(C#N)c(SCC(=O)Nc3ccccc3N3CCOCC3)nc12		inactive
Cc1cc2nc3c(=O)n(CCc4ccccc4)c(=O)[nH]c3nc2cc1N		> 40 µM (inactive)
Cc1cc(/C=C(/C#N)C(=O)Nc2ccc(Cl)cc2)c(C)n1-c1cccnc1	5.58	

Compound	pIC50	IC50
CCOC(=O)c1sc(NC(=O)c2ccc(S(=O)(=O)N(CC)CC)cc2)nc1C		inactive
Cn1cncc1C#Cc1ccc2cc(C3(O)CCCCC3)oc(=O)c2c1		inactive
CCC(=O)c1cn(CC(=O)Nc2ccccc2Cl)c2ccccc12	5.40	
O=C(Nc1nc(-c2cccs2)c(-c2cccs2)s1)C1CCCC1	5.54	
CCOC(=O)c1sc(NC(=S)NC(=O)c2ccc(OC)cc2)nc1C	5.68	
Oc1ccc2ccc3cccc[n+]3c2c1		> 40 µM (inactive)
COc1ccc2c(Cl)c(-c3nnc(SCC(=O)c4ccccc4)n3C)sc2c1	5.47	
CCn1cc(/C=C/c2cc[n+](C)cc2)c2ccccc21	5.49	
COCCn1c(=NC(=O)CCS(=O)(=O)c2ccccc2)sc2cc(C(=O)OC)ccc21		> 40 µM (inactive)
Cc1cc(C)c(NC(=O)COc2ccccc2C(=O)Nc2ccc3c(c2)oc2ccccc23)c(C)c1		> 40 µM (inactive)
CC1=NN(c2ccccc2)C(=O)/C1=C\C=C1\N(C)c2ccccc2C1(C)C		inactive
COCCCn1c(C(=O)NCCC2=CCCCC2)cc2c(=O)n3cccc(C)c3nc21	5.11	
Cc1c(C#N)c(N)nc2c3c(sc12)NC(=O)CC3c1ccc(Cl)cc1 (centres undefined)		> 40 µM (inactive)
COc1ccc(C(C)=O)cc1CSc1nc2ccccc2c(=O)n1-c1cccc(C)c1	5.66	
COc1ccc(C(=O)Nc2nc(C)c(C(C)=O)s2)cc1S(=O)(=O)N1CCOCC1		> 40 µM (inactive)
CCSc1nnc(-c2ccc(Cl)cc2)c2ccccc12	5.15	
Fc1cccc2sc(Nc3nc4ccccc4s3)nc12		> 40 µM (inactive)
Cc1cccc2cc(C#N)c(SCC(=O)N3CCC(C)CC3)nc12	5.90	
Nc1ccc2ccc3cccc[n+]3c2c1	5.09	
CC(OC(=O)c1cc2c(ccc3ccccc32)oc1=O)c1nc2ccccc2s1 (centres undefined)		inactive
N#C/C(=C(/O)C(Cl)c1ccccc1)c1nc2ccccc2s1 (centres undefined)	5.24	
Cc1ccc2nc(/C(C#N)=C/c3ccc(-c4ccccc4C(=O)O)o3)[nH]c2c1		inactive
COc1cccc(CNC(=O)C[C@H]2CC[C@H]3[C@@H](COc4ccc(NC(=O)c5cccs5)cc4C(=O)N3C)O2)c1	5.14	
CCOc1ccc(C(=O)Nc2nc(C)c(C(=O)OC)s2)cc1	5.66	

Compound	pIC50	IC50
COc1ccc(Cl)cc1NC(=O)c1[nH]c(C)c(C(C)=O)c1C	5.21	
COc1ccc(-c2cc(-c3ccc(C)cc3)nc(SCc3nnc(-c4ccccc4)o3)c2C#N)cc1OC	5.06	
Cc1nc(SCC(=O)Nc2ccccc2)c2oc3ccccc3c2n1		inactive
N#Cc1c(N)nc(SCC(=O)NCc2ccc3c(c2)OCO3)c(C#N)c1-c1cccs1	5.62	
Cc1nn(C)cc1N1C(=O)c2cccc3c(N)ccc(c23)C1=O		inactive
O=C(CSc1nc2ccccc2c(=O)n1-c1ccc(F)cc1)Nc1ccc(Cl)c(S(=O)(=O)N2CCOCC2)c1	5.62	
N#Cc1ccccc1N1CCN(C(=O)C2CCN(c3ncnc4c3sc3cccc(F)c34)CC2)CC1	5.35	
COc1ccc(-c2nc(NC(=O)c3ccc(OCC(=O)Nc4ccc(F)cc4)c(OC)c3)sc2C)cc1		> 40 µM (inactive)
COc1ccc(/C=C2\SC(=S)N(CCCC(=O)NC3CCCC3)C2=O)cc1OC		> 40 µM (inactive)
Cc1nc(NCCc2ccc(Cl)cc2)c2nnn(Cc3ccccc3)c2n1	5.72	
CCCC1(c2ccccc2)NC(=O)N(CC(=O)Nc2sc(-c3ccccc3)cc2C(=O)OCC)C1=O (centres undefined)		inactive
Nc1nc(-c2cccs2)c(-c2cccs2)s1	5.84	
Cc1nc(N2CCN(c3ccccn3)CC2)c2c(C)c(C(=O)N3CCN(c4cccc(Cl)c4)CC3)sc2n1		> 40 µM (inactive)
CC(C)c1ccc(-c2c(C#N)c(N)nc(SCC(=O)N3CCCCC3)c2C#N)cc1	5.50	
CCOc1ccccc1NC(=O)c1nnn(CC(=O)Nc2cc(C)cc(C)c2)c1N		> 40 µM (inactive)
Cc1ccccc1OCC(=O)Nc1ccc2c(c1)C(=O)c1ccccc1C2=O		> 40 µM (inactive)
COc1ccc(/C=C2/SC(=O)N(CCC(=O)Nc3ccccc3)C2=O)cc1OC	5.03	
Cc1cccc(N2CCN(c3ccc4cc(S(=O)(=O)N5CCCCC5)ccc4n3)CC2C)c1 (centres undefined)	5.31	
CSc1nnc2c3cc(F)ccc3n(Cc3ccccc3)c2n1	5.10	
CCOC(=O)c1ccc2nc(Nc3nc4ccc(F)cc4s3)sc2c1	5.15	
Cc1ccc(-c2nc3ccccc3s2)cc1NC(=O)c1cc(-n2cnnc2)ccc1Cl		inactive
COc1ccc(-n2nc(C(=O)NCC(=O)Nc3cccc(Cl)c3)c3ccccc3c2=O)cc1OC	5.59	

Reference: PubChem BioAssay AID1259321 (Sanford-Burnham Center for Chemical Genomics, 2017)
